# Measured values taken from ChEMBL document CHEMBL1201862, “PubChem BioAssay data set” (2004).
#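 Step 1: Grow cells in 96-well plates. Step 2: Expose to compound for 48 hours at 5 concentrations. Step 3: Interpolate endpoints linearly; if unreached, use highest concentration. GI50 is the concentration that inhibits growth by half.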 Calls of active or inactive are those of the source. Cut-off read from the data, not from the text of the source: active = GI50 up to about 1.1 µM and inactive = higher.
# Columns and labels:
# Test in all cases: NCI-60 cell line screen, 48 h
# MOLT-4 = test system: MOLT-4
# SNB-19 = test system: SNB-19
# RXF 393 = test system: RXF 393
# SR = test system: SR
# EKVX = test system: EKVX
# HCC 2998 = test system: HCC 2998
# SK-OV-3 = test system: SK-OV-3
# MDA-MB-435 = test system: MDA-MB-435
# SK-MEL-28 = test system: SK-MEL-28
# SN12C = test system: SN12C
# SNB-75 = test system: SNB-75
# A498 = test system: A498
# PC-3 = test system: PC-3
# ACHN = test system: ACHN
# MDA-N = test system: MDA-N
# COLO 205 = test system: COLO 205
# TK-10 = test system: TK-10
# SW-620 = test system: SW-620
# UACC-257 = test system: UACC-257
# K562 = test system: K562
# SK-MEL-2 = test system: SK-MEL-2
# CCRF-CEM = test system: CCRF-CEM
# HCT-116 = test system: HCT-116
# U-251 = test system: U-251
# UACC-62 = test system: UACC-62
# NCI-H226 = test system: NCI-H226
# OVCAR-8 = test system: OVCAR-8
# IGROV-1 = test system: IGROV-1
# Hs-578T = test system: Hs-578T
# NCI-H460 = test system: NCI-H460
# OVCAR-5 = test system: OVCAR-5
# LOX IMVI = test system: LOX IMVI
# SF-295 = test system: SF-295
# SK-MEL-5 = test system: SK-MEL-5
# HOP-92 = test system: HOP-92
# OVCAR-3 = test system: OVCAR-3
# CAKI-1 = test system: CAKI-1
# RPMI-8226 = test system: RPMI-8226
# UO-31 = test system: UO-31
# 786-0 = test system: 786-0
# HCT-15 = test system: HCT-15
# NCI-H522 = test system: NCI-H522
# M14 = test system: M14
# HOP-62 = test system: HOP-62
# DU-145 = test system: DU-145
# T47D = test system: T47D
# MDA-MB-231 = test system: MDA-MB-231
# MCF7 = test system: MCF7
# OVCAR-4 = test system: OVCAR-4
# A549 = test system: A549
# KM12 = test system: KM12
# SF-539 = test system: SF-539
# BT-549 = test system: BT-549
# SF-268 = test system: SF-268
# NCI/ADR-RES = test system: NCI/ADR-RES
# HT-29 = test system: HT-29
# HL-60 = test system: HL-60
# Malme-3M = test system: Malme-3M
# NCI-H23 = test system: NCI-H23
smiles,measurement,setting,value
O=C1c2c(F)c(F)c(F)c(F)c2SC2=Nc3cccc4cccc(c34)N12,GI50,MOLT-4,2.16 µM (inactive)
same,GI50,SNB-19,8.09 µM (inactive)
same,GI50,RXF 393,4.1 µM (inactive)
same,GI50,SR,2.13 µM (inactive)
same,GI50,EKVX,9.79 µM (inactive)
same,GI50,HCC 2998,13.9 µM (inactive)
same,GI50,SK-OV-3,4.14 µM (inactive)
same,GI50,MDA-MB-435,4.94 µM (inactive)
same,GI50,SK-MEL-28,4.27 µM (inactive)
same,GI50,SN12C,3.79 µM (inactive)
same,GI50,SNB-75,12.1 µM (inactive)
same,GI50,A498,18.5 µM (inactive)
same,GI50,PC-3,5.68 µM (inactive)
same,GI50,ACHN,7.05 µM (inactive)
same,GI50,MDA-N,5.05 µM (inactive)
same,GI50,COLO 205,9.35 µM (inactive)
same,GI50,TK-10,13.3 µM (inactive)
same,GI50,SW-620,3.29 µM (inactive)
same,GI50,UACC-257,5.19 µM (inactive)
same,GI50,K562,2.02 µM (inactive)
same,GI50,SK-MEL-2,2.75 µM (inactive)
same,GI50,CCRF-CEM,3.31 µM (inactive)
same,GI50,HCT-116,4.08 µM (inactive)
same,GI50,U-251,3.78 µM (inactive)
same,GI50,UACC-62,4.22 µM (inactive)
same,GI50,NCI-H226,11.4 µM (inactive)
same,GI50,OVCAR-8,5.41 µM (inactive)
same,GI50,IGROV-1,11.4 µM (inactive)
same,GI50,Hs-578T,2.86 µM (inactive)
same,GI50,NCI-H460,10 µM (inactive)
same,GI50,OVCAR-5,16.1 µM (inactive)
same,GI50,LOX IMVI,2.77 µM (inactive)
same,GI50,SF-295,14.5 µM (inactive)
same,GI50,SK-MEL-5,14.1 µM (inactive)
same,GI50,HOP-92,2.37 µM (inactive)
same,GI50,OVCAR-3,3.21 µM (inactive)
same,GI50,CAKI-1,14.9 µM (inactive)
same,GI50,RPMI-8226,2.62 µM (inactive)
same,GI50,UO-31,9.16 µM (inactive)
same,GI50,786-0,5.51 µM (inactive)
same,GI50,HCT-15,4.92 µM
same,GI50,NCI-H522,2.54 µM (inactive)
same,GI50,M14,2.92 µM (inactive)
same,GI50,HOP-62,13.7 µM (inactive)
same,GI50,DU-145,12.2 µM (inactive)
same,GI50,T47D,1.56 µM (inactive)
same,GI50,MDA-MB-231,3.24 µM (inactive)
same,GI50,MCF7,3.78 µM (inactive)
same,GI50,OVCAR-4,3.49 µM (inactive)
same,GI50,A549,18.5 µM (inactive)
same,GI50,KM12,3.05 µM (inactive)
same,GI50,SF-539,6.18 µM (inactive)
same,GI50,BT-549,10.9 µM (inactive)
same,GI50,SF-268,3.61 µM (inactive)
same,GI50,NCI/ADR-RES,2.77 µM (inactive)
same,GI50,HT-29,7.48 µM (inactive)
same,GI50,HL-60,2.07 µM (inactive)
same,GI50,Malme-3M,3.48 µM (inactive)
same,GI50,NCI-H23,3.88 µM (inactive)
C1=N\c2ccc(cc2)-c2ccc(cc2)/N=C\c2ccccc2OCc2cccc(n2)COc2ccccc2/1,GI50,MOLT-4,> 100 µM (inactive)
same,GI50,SNB-19,13.9 µM (inactive)
same,GI50,RXF 393,15.2 µM (inactive)
same,GI50,SR,> 100 µM (inactive)
same,GI50,EKVX,36.4 µM (inactive)
same,GI50,HCC 2998,> 100 µM (inactive)
same,GI50,SK-OV-3,30.1 µM (inactive)
same,GI50,MDA-MB-435,> 100 µM (inactive)
same,GI50,SK-MEL-28,84.9 µM (inactive)
same,GI50,SN12C,> 81.3 µM (inactive)
same,GI50,SNB-75,2.83 µM (inactive)
same,GI50,A498,65.9 µM (inactive)
same,GI50,PC-3,> 100 µM (inactive)
same,GI50,ACHN,21.3 µM (inactive)
same,GI50,MDA-N,> 100 µM (inactive)
same,GI50,COLO 205,> 100 µM (inactive)
same,GI50,TK-10,26.6 µM (inactive)
same,GI50,SW-620,> 100 µM (inactive)
same,GI50,UACC-257,> 100 µM (inactive)
same,GI50,K562,> 100 µM (inactive)
same,GI50,SK-MEL-2,27.6 µM (inactive)
same,GI50,CCRF-CEM,> 100 µM (inactive)
same,GI50,HCT-116,24.4 µM (inactive)
same,GI50,U-251,7.59 µM (inactive)
same,GI50,UACC-62,39.4 µM (inactive)
same,GI50,NCI-H226,39.5 µM (inactive)
same,GI50,OVCAR-8,31.8 µM (inactive)
same,GI50,IGROV-1,40.6 µM (inactive)
same,GI50,Hs-578T,13.1 µM (inactive)
same,GI50,NCI-H460,71.6 µM (inactive)
same,GI50,OVCAR-5,> 63.5 µM (inactive)
same,GI50,LOX IMVI,> 44.2 µM (inactive)
same,GI50,SF-295,18.5 µM (inactive)
same,GI50,SK-MEL-5,> 31.2 µM (inactive)
same,GI50,HOP-92,10.9 µM (inactive)
same,GI50,OVCAR-3,> 100 µM (inactive)
same,GI50,CAKI-1,> 58.5 µM (inactive)
same,GI50,RPMI-8226,> 100 µM (inactive)
same,GI50,UO-31,> 60.7 µM (inactive)
same,GI50,786-0,9.38 µM (inactive)
same,GI50,HCT-15,> 100 µM
same,GI50,NCI-H522,23.8 µM (inactive)
same,GI50,M14,36.4 µM (inactive)
same,GI50,HOP-62,5.27 µM (inactive)
same,GI50,DU-145,> 80.5 µM (inactive)
same,GI50,T47D,> 54 µM (inactive)
same,GI50,MDA-MB-231,34 µM (inactive)
same,GI50,MCF7,> 100 µM (inactive)
same,GI50,OVCAR-4,> 100 µM (inactive)
same,GI50,A549,72.8 µM (inactive)
same,GI50,KM12,> 100 µM (inactive)
same,GI50,SF-539,26.7 µM (inactive)
same,GI50,BT-549,32.7 µM (inactive)
same,GI50,SF-268,20.6 µM (inactive)
same,GI50,NCI/ADR-RES,> 100 µM (inactive)
same,GI50,HT-29,> 100 µM (inactive)
same,GI50,HL-60,> 100 µM (inactive)
same,GI50,Malme-3M,> 82.8 µM (inactive)
same,GI50,NCI-H23,15.1 µM (inactive)
CCN(CC)CCCNc1nncc2c(C)c3[nH]c4ccc(OC)cc4c3cc12,GI50,MOLT-4,0.0173 µM (active)
same,GI50,SNB-19,0.318 µM (active)
same,GI50,RXF 393,1.32 µM (inactive)
same,GI50,SR,0.414 µM (active)
same,GI50,EKVX,2.11 µM (inactive)
same,GI50,HCC 2998,0.65 µM (active)
same,GI50,SK-OV-3,1.17 µM (inactive)
same,GI50,MDA-MB-435,1.11 µM (active)
same,GI50,SK-MEL-28,0.766 µM (active)
same,GI50,SN12C,0.271 µM (active)
same,GI50,SNB-75,0.64 µM (active)
same,GI50,A498,1.75 µM (inactive)
same,GI50,PC-3,0.358 µM (active)
same,GI50,ACHN,1.08 µM (active)
same,GI50,MDA-N,0.695 µM (active)
same,GI50,COLO 205,1.03 µM (active)
same,GI50,TK-10,2.82 µM (inactive)
same,GI50,SW-620,0.184 µM (active)
same,GI50,UACC-257,2.35 µM (inactive)
same,GI50,K562,0.14 µM (active)
same,GI50,SK-MEL-2,1.02 µM (active)
same,GI50,CCRF-CEM,0.0535 µM (active)
same,GI50,HCT-116,0.277 µM (active)
same,GI50,U-251,0.304 µM (active)
same,GI50,UACC-62,1.29 µM (inactive)
same,GI50,NCI-H226,0.0557 µM (active)
same,GI50,OVCAR-8,0.182 µM (active)
same,GI50,IGROV-1,0.356 µM (active)
same,GI50,Hs-578T,0.482 µM (active)
same,GI50,NCI-H460,0.789 µM (active)
same,GI50,OVCAR-5,1.25 µM (inactive)
same,GI50,LOX IMVI,0.189 µM (active)
same,GI50,SF-295,1.55 µM (inactive)
same,GI50,SK-MEL-5,0.935 µM (active)
same,GI50,HOP-92,0.369 µM (active)
same,GI50,OVCAR-3,0.604 µM (active)
same,GI50,CAKI-1,8.41 µM (inactive)
same,GI50,RPMI-8226,0.724 µM (active)
same,GI50,UO-31,3.17 µM (inactive)
same,GI50,786-0,0.222 µM (active)
same,GI50,HCT-15,10.3 µM
same,GI50,NCI-H522,0.0256 µM (active)
same,GI50,M14,1.61 µM (inactive)
same,GI50,HOP-62,0.525 µM (active)
same,GI50,DU-145,0.622 µM (active)
same,GI50,T47D,0.286 µM (active)
same,GI50,MDA-MB-231,0.716 µM (active)
same,GI50,MCF7,0.0975 µM (active)
same,GI50,OVCAR-4,0.618 µM (active)
same,GI50,A549,0.718 µM (active)
same,GI50,KM12,0.592 µM (active)
same,GI50,SF-539,0.268 µM (active)
same,GI50,BT-549,1.54 µM (inactive)
same,GI50,SF-268,0.706 µM (active)
same,GI50,NCI/ADR-RES,38.8 µM (inactive)
same,GI50,HT-29,0.504 µM (active)
same,GI50,HL-60,0.91 µM (active)
same,GI50,Malme-3M,0.916 µM (active)
same,GI50,NCI-H23,0.421 µM (active)
